Experimental findings from paper PMC6240685, “Strong Inhibitory Effect, Low Cytotoxicity and High Plasma Stability of Steroidal Inhibitors of N-Methyl-D-Aspartate Receptors With C-3 Amide Structural Motif” (Frontiers in Pharmacology, 2018) are described below.

SMILES strings stand for the structures. Like-named read-outs stand apart in the source and are kept apart here.

For one assay, the target named is T1, GluN1/GluN2B receptors (Rattus norvegicus, UniProt P35439+Q00960).
T1 construct: expressed in transfected cells; host or cells: HEK293
In words: Patch-clamp inhibition of glutamate responses of GluN1/GluN2B receptors in transfected HEK293 cells. The format is cell-based. (In patch-clamp work, channel activity is measured electrically.)

The subject of a further assay is native NMDARs. Nature of the assay: Inhibition of native NMDAR responses in cultured hippocampal neurons. It is filed as cell-based, rat. As to the method: FIGURE 8 The effect of compound 6 on peak and steady-state responses of native NMDARs, AMPARs, and GABARs. (A) Examples of traces obtained from cultured hippocampal neurons. Compound 6 (10 μM) was pre-applied in the absence of agonists followed by co-application with NMDA (100 μM), AMPA (100 μM), and GABA (5 μM) (duration of agonist and steroid application is indicated by filled and open bars, respectively). (B) Bar graph represents the mean values of relative changes in the peak (black columns) and steady-state (red columns) responses of native NMDARs, AMPARs, and GABARs recorded in the continuous presence of 10 μM compound 6. Error bars represent SD from five independent measurements. Asterisks mark significance at the level of P < 0.05 (Paired t-test). […]
Electrophysiological experiments were performed on HEK293 cells transfected with plasmids encoding rat GluN1-1a/GluN2A-D and GFP genes as described previously, ([Petrovic et al., 2005]; [Cais et al., 2008]; [Korinek et al., 2010]) or on primary hippocampal neurons prepared from P0–P1 rats, plated on collagen/poly-D-lysine-coated glass coverslips at a density of ∼50,000 cells/cm^2, and grown in Neurobasal A medium with B27 Supplement (Gibco). […] Agonist-induced responses were low-pass filtered at 2 kHz, digitally sampled at 5 kHz, and analyzed with pClamp software version 10.5 (Molecular Devices). […]

The IC50 is the midpoint of a concentration-inhibition curve.

T1 sequence (Q00960 27-1482, other chains not shown): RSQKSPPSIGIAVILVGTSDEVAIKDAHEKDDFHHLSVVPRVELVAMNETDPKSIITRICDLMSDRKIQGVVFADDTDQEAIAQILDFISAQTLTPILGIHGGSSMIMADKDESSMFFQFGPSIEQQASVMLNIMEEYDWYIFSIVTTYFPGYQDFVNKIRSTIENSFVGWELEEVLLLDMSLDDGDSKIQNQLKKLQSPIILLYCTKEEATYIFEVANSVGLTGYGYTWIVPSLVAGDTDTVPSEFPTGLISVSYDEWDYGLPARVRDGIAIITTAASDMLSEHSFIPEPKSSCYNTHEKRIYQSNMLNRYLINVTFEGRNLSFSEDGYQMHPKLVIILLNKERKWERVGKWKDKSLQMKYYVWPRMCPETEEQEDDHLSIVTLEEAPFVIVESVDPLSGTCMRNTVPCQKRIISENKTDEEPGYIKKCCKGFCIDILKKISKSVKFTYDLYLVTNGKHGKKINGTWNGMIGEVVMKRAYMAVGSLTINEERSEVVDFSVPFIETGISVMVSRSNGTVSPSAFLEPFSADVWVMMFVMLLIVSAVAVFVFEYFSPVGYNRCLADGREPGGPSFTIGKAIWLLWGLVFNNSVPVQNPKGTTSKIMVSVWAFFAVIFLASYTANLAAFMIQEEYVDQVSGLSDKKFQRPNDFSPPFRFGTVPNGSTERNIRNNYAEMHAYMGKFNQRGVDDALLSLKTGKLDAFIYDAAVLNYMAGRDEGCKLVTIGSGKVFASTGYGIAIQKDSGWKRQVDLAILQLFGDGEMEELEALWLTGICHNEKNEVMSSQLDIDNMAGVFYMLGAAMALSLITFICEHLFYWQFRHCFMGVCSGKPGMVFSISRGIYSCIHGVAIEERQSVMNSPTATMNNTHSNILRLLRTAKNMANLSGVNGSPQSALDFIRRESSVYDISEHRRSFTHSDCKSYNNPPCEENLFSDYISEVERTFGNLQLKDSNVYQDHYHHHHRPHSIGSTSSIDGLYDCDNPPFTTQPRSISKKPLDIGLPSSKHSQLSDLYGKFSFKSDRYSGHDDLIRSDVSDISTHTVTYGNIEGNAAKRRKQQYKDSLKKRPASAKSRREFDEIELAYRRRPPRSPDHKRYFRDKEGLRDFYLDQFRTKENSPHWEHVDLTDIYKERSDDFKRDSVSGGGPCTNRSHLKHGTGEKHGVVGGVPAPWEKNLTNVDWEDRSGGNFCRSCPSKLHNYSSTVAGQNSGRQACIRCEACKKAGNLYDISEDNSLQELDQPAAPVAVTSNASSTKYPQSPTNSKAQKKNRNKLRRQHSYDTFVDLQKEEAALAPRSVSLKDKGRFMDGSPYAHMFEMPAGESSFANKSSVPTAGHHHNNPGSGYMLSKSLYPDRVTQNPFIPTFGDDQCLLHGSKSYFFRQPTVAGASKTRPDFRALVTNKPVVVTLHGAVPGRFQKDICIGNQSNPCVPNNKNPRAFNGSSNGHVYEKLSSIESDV

On to `C[C@@]12CCC[C@H]1[C@@H]1CC[C@@H]3C[C@H](NC(=O)[C@@H](N)CC(=O)O)CC[C@]3(C)[C@H]1CC2` [Compound 6, (S)-3-amino-4-(((3R,5R,8S,9S,10S,13S,14S)-10,13-dimethylhexadecahydro-1H-cyclopenta[a]phenanthren-3-yl)amino)-4-oxobutanoic acid], for which the ΔGexp at GluN1/GluN2B receptors is -7.29 kcal/mol. Also, the “h ± SD (apparent Hill coefficient)” value on GluN1/GluN2B receptors (1 mM glutamate and 10 μM glycine) was 1.3 ± 0.1. In addition, the 50% inhibitory concentration (IC50) at GluN1/GluN2B receptors (as repeated in Table 2, read-out: IC50) was 4.8 µM; at GluN1/GluN2B receptors (concentration-response, 1 mM glutamate and 10 μM glycine, read-out: IC50 ±SD), 7.4 ± 0.8 µM; on GluN1/GluN2B receptors (current responses to glutamate, HEK293, IC50 from single steroid dose, Hill coefficient fixed at 1.2, read-out: IC50 ± SD), 4.8 ± 0.9 µM; in the assay with native NMDARs (100 μM NMDA, hippocampal neurons), 8.3 ± 2.1 µM. For the same molecule, the “inhibition of steady-state vs peak response, NMDARs” value in the assay on native NMDARs (10 μM compound present continuously, NMDA 100 μM) was “more efficient inhibitor of tonically activated receptors at the steady–state”.
